Data as given in the OPERA property sets (Mansouri et al. 2018).

Conditions: for log10 BCF / log10 biotransformation half-life (days): fish

SMILES	melting point [°C]	boiling point [°C]	also measured
O=[N+]([O-])c1ccc(NS(=O)(=O)c2ccc(Cl)c(C(F)(F)F)c2)c(Cl)c1	170	–	–
ClCCCCCCCCCCCl	15.6	–	–
C[C@H](O)CCc1ccccc1	–	239	–
Fc1c(Cl)c(F)c(Cl)c(F)c1Cl	–	198	–
Cc1ccccc1CC(C)C	-73.3	196	–
C=COCCCCCCCCCCCCCCCCCC	30	–	–
C1=CCc2ccccc2C1	25	212	–
Cc1ccc(Cl)cc1	7.5	162	log10 vapour pressure (mmHg): 0.43; ready biodegradability: not readily biodegradable; log10 BCF: 1.76; log10 biotransformation half-life (days): -0.83
O=[N+]([O-])c1cc(F)c(F)cc1F	-11	194	–
CCC(O)C(C)(C)C (stereo not given)	-5	135	–
Cc1cccc2cc3ccc4ccccc4c3cc12	118	–	–
CCCCCCCCCCCCCCCCCCCO	63.3	–	–
O=C(N/N=C/c1ccccc1O)c1ccncc1	232	–	–
Clc1cccc(-c2cccc(Cl)c2)c1	29	320	log10 Henry constant (atm·m³/mol): -3.63; log10 vapour pressure (mmHg): -3.19
CNC(=O)Oc1cccc2ccccc12	145	315	log10 Koc (L/kg): 2.4; log10 vapour pressure (mmHg): -5.87; ready biodegradability: readily biodegradable; log10 BCF: 0.95; log10 biotransformation half-life (days): -1.18
Clc1cc(Cl)c(-c2cc(Cl)c(Cl)cc2Cl)cc1Cl	–	–	log10 Henry constant (atm·m³/mol): -4.64; log10 Koa: 9.73; log10 Koc (L/kg): 5.58; log10 vapour pressure (mmHg): -5.46; log10 BCF: 5.43; log10 biotransformation half-life (days): 2.55
C[C@@H]([C@H](O)c1ccccc1)N(C)C	87.5	–	–
CC=CC#N	–	120	log10 vapour pressure (mmHg): 1.5
COc1cc(C(=O)c2ccc(Cl)cc2)cc(OC)c1OCCN1CCOCC1	91.5	–	–
CC(=O)Nc1c(C)cccc1C	183	–	–
CCCCCCCCCCCCCCCCCC(N)=O	109	–	–
CC(C)(C)CC(C)(C)c1ccc(O)cc1	84.5	–	log10 vapour pressure (mmHg): -3.32; ready biodegradability: not readily biodegradable; log10 BCF: 2.46; log10 biotransformation half-life (days): -0.04
Cc1cnc2ccccc2n1	180	244	–
CC12CCC(C(Br)C1=O)C2(C)C (stereo not given)	76.5	274	–

SMILES	melting point [°C]	boiling point [°C]	also measured
CCCl	-139	12.3	log10 Henry constant (atm·m³/mol): -1.95; log10 vapour pressure (mmHg): 3; ready biodegradability: not readily biodegradable
Cc1cccc(C)c1C	-25.4	176	log10 Henry constant (atm·m³/mol): -2.36; log10 Koc (L/kg): 2.8; log10 biodegradation half-life (days): 0.602; log10 vapour pressure (mmHg): 0.228; ready biodegradability: not readily biodegradable; log10 BCF: 2.29; log10 biotransformation half-life (days): -0.22
Cc1cccc(C)c1NC(=O)c1ccc[nH]c1=O	266	–	–
O=C(O)c1ccc(F)c(F)c1	123	–	–
Clc1ccc(C(Cl)(Cl)Cl)c(Cl)c1	–	–	ready biodegradability: not readily biodegradable
CC(C)[N+](=O)[O-]	-91.3	120	log10 vapour pressure (mmHg): 1.24; log10 BCF: 0.92; log10 biotransformation half-life (days): -1.2
NCCNCCO	-38	239	ready biodegradability: not readily biodegradable; log10 BCF: 0.46
CCn1cc(C(=O)O)c(=O)c2cnc(N3CCNCC3)nc21	254	–	–
O=C(/C=C/c1ccc([N+](=O)[O-])cc1)c1ccccc1	159	–	–
O=C(Nc1ccc(Cl)c(Cl)c1)c1cc(Cl)cc(Cl)c1O	161	–	–
Brc1ccsc1	–	150	log10 vapour pressure (mmHg): 1.22
CCCCC(C)C(C)(C)C (stereo not given)	–	158	–
CCCNC(=O)NCCC	105	255	–
Clc1ccccc1C(Cl)(Cl)Cl	29.4	264	log10 vapour pressure (mmHg): -1.3
Cc1cccc(C)c1C(=O)O	116	274	–
ClC1=C(Cl)C2(Cl)C3C(Cl)C(Cl)CC3C1(Cl)C2(Cl)Cl (stereo not given)	106	–	log10 Henry constant (atm·m³/mol): -3.53; log10 Koc (L/kg): 4.78; log10 vapour pressure (mmHg): -4.69; ready biodegradability: not readily biodegradable; log10 BCF: 4.35; log10 biotransformation half-life (days): 2.26
CCCCCCCCCCCCCCCC(=O)N(CCO)CCO	–	–	ready biodegradability: readily biodegradable
C#C[C@]1(O)CC[C@H]2[C@@H]3CCC4=C(CCC(=O)C4)[C@H]3CC[C@@]21C	170	–	–
CCCCCCCCCCCCCCCC(C)O (stereo not given)	54	–	–
Clc1cc(Cl)c(-c2c(Cl)cccc2Cl)c(Cl)c1	85	–	–
CCCCOP(=O)(O)OCCCC	-13	–	ready biodegradability: not readily biodegradable
CCOC(=O)c1cccc(C)c1	–	234	–
Cc1cccc(C(C)c2ccccc2)c1C (stereo not given)	–	–	ready biodegradability: not readily biodegradable
O=C(O)C(Cl)Br (racemic)	31.5	215	–
